“And” between values parts separate entries of the source, which are not always exact repeats. Equal values may be shown once.
Tests used:
degenerative arthritis = conditions: treatment group; 20% in placebo group; cited from earlier work
[1] = system: Freund's Adjuvant-Induced Arthritis; assay: Freund's Adjuvant-Induced Arthritis in Wistar Albino rats (paw volume by Plethysmograph); assay type: in vivo
Method: Effect of 5-LOXIN compositions on Freund's Adjuvant-Induced Arthritis in Winstar Albino rats: Wistar Albino rats of either sex were selected randomly and divided into groups containing 6 rats (3 male and 3 female) each. The rats of treatment groups were administered orally a suspension of 5-LOXIN (15 mg/kg, p.o.) or glucosamine salt (135 mg/kg, p.o.) or curcuminoids (20 mg/kg, p.o.) or ginger (3 mg/kg, p.o.) or one fifth of a formulation containing unit doses of all the four ingredients [formulation I: 5-LOXIN (15 mg)+glucosamine (135 mg)+curcuminoids DP 95% (20 mg)+Ginger DP 15% total pungent compounds (3 mg)]or prednisolone (10 mg/kg, p.o.) in 0.5% CMC, for 30 days. The control group received 0.5% CMC. Following the drug treatment all animals were challenged, on 31st day, with 50 μl of complete Freund's adjuvant injection to the sub plantar region of right hind paw. The paw volume was measured before (V0) and after the injection of Freund's adjuvant at the end of 30, 60, 120, 180, 240 and 360 min by Plethysmograph. The paw oedema was measured everyday upto 17th day.

Structure (SMILES)	Improvement in degenerative arthritis (degenerative arthritis) [%]	% protection ([1]; day 13, against control group mean oedema 0.478) [%]	Day-13 E, ME (mean oedema of the group) ([1]; group mean, oral treatment for 30 days) [mL]	Paw Volume After Freund's Adjuvant, Day-13 E (oedema) ([1]; individual rat, Day-13 PV minus 0 hr, oral treatment for 30 days, hydrochloride)	Paw Volume After Freund's Adjuvant, Day-13 PV ([1]; individual rat, oral treatment for 30 days, adjuvant on 31st day, read on day 13, dose per sample in table, hydrochloride)
CS(C)(=O)=O [MSM, Methylsulfonylmethane]	80	–	–	–	–
Cl.N[C@H]1C(O)O[C@H](CO)[C@@H](O)[C@@H]1O (some centres unmarked) [Glucosamine, glucosamine hydrochloride]	–	37.94	0.30	0.37 mL and 0.3 mL and 0.22 mL	1.56 mL and 1.59 mL and 1.53 mL

— patent publication US7455860B2, “Dietary supplement formulation for controlling inflammation and cancer” (Laila Nutraceuticals, priority 2005, dated 2008)
